{
  "source": "paper PMC9091350",
  "about": "“Sodium Tanshinone IIA Sulfonate as a Potent IDO1/TDO2 Dual Inhibitor Enhances Anti-PD1 Therapy for Colorectal Cancer in Mice” (Frontiers in Pharmacology, 2022)",
  "type_in_all_cases": "biochemical",
  "key": {"[1]": {"molecular_target": "T1, indoleamine 2,3-dioxygenase 1 (IDO1) (Homo sapiens, UniProt P14902)", "T1 construct": "full-length, N-terminal His-AK tag (His-AK-IDO1)", "T1 sequence (P14902 whole entry)": "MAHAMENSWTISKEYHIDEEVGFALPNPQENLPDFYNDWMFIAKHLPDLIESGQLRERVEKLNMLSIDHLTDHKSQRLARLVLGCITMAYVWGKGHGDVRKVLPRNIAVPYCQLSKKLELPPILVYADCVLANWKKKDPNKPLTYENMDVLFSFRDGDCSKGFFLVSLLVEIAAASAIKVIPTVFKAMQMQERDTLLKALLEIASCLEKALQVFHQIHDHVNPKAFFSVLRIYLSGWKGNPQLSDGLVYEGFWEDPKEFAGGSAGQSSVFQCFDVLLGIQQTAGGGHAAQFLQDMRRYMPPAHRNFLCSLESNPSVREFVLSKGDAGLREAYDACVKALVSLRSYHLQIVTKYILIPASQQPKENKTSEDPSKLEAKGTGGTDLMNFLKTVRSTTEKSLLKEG", "experiment": "purified recombinant enzyme inhibitor screen (compounds at […]), kynurenine absorbance at […] nm"}, "[2]": {"molecular_target": "T1, indoleamine 2,3-dioxygenase 1 (IDO1)", "experiment": "purified recombinant enzyme assay, kynurenine absorbance at […] nm; also kynurenine reduction in IDO1-293T cells"}, "[3]": {"molecular_target": "T2, tryptophan 2,3-dioxygenase 2 (TDO2) (Homo sapiens, UniProt P48775)", "T2 sequence (P48775 whole entry)": "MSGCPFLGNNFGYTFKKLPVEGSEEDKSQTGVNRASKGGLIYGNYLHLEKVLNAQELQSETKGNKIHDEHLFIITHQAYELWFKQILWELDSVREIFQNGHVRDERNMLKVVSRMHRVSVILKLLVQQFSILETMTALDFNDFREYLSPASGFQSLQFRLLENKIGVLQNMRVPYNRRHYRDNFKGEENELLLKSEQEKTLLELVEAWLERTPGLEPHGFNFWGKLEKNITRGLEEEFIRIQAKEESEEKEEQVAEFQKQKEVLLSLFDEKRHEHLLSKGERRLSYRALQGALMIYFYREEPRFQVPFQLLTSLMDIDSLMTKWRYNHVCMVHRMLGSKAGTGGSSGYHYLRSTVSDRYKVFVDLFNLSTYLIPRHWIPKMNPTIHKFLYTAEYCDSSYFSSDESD", "experiment": "purified recombinant enzyme assay, kynurenine absorbance at […] nm; also kynurenine reduction in TDO2-293T cells"}, "[4]": {"molecular_target": "T2, tryptophan 2,3-dioxygenase 2 (TDO2)", "experiment": "purified recombinant enzyme assay, kynurenine absorbance at […] nm"}},
  "data": [
    {"smiles": "COc1c(O)cc2oc3cc(O)c(CC=C(C)C)c(O)c3c(=O)c2c1CC=C(C)C", "note": "[mangostin]", "values": [
      {"measurement": "purified recombinant enzyme inhibitor screen (compounds at 10 μM), kynurenine ab", "setting": "[1]", "result": "several compounds, including mangostin and androstenedione, could inhibit the activity of IDO1 (Supplementary Figures S1A,B)"}
    ]},
    {"smiles": "Cc1c(S(=O)(=O)O)oc2c1C(=O)C(=O)c1c-2ccc2c1CCCC2(C)C", "note": "[STS, Sodium tanshinone IIA sulfonate]", "values": [
      {"measurement": "IC50", "setting": "[2]", "result": "< 10", "unit": "µM"},
      {"measurement": "IC50", "setting": "[3]", "result": "< 10", "unit": "µM"}
    ]},
    {"smiles": "Cc1coc2c1C(=O)C(=O)c1c-2ccc2c1CCCC2(C)C", "note": "[TSN, tanshinone IIA]", "values": [
      {"measurement": "purified recombinant enzyme assay, kynurenine absorbance at 490 nm", "setting": "[4]", "result": "TSN only reduced the activity of TDO2 but not IDO1 (Figure 1C)"}
    ]}
  ]
}
